Test results published in patent US20080210905A1, “ORGANIC-ELECTROLUMINESCENCE-MATERIAL-CONTAINING SOLUTION, METHOD FOR SYNTHESIZING ORGANIC ELECTROLUMINESCENCE MATERIAL, COMPOUND SYNTHESIZED BY THE METHOD, METHOD FOR FORMING THIN FILM OF ORGANIC ELECTROLUMINESCENCE MATERIAL, THIN FILM OF ORGANIC ELECTROLUMINESCENCE MATERIAL AND ORGANIC …” (Idemitsu Kosan Co., Ltd., priority 2006, published 2008).

Tests used:
[1] = Solubility evaluation: compound stirred in toluene, visual check for insoluble matter; assay type: physicochemical; settings: for Presence of insoluble matter: 0.01 g of anthracene compound and 1 g of toluene, stirred, visual check; for solubility in toluene: concluded from visual check of 0.01 g compound in 1 g toluene
Source text: In order to evaluate a relationship between the soluble portion B and the solubility, how the solubility was changed depending on the bonding number U of the solubility portion B was examined.
As the compound, an anthracene compound as represented by the following formula was used.
A solubility portion B of the compound was structured as represented by the formula (3), and the bonding number of the solubility portion is represented by (a).
With the above structure, compounds respectively having bonding numbers (a) of 1, 2, 3 and 6 were synthesized.
Then, 0.01 g of the anthracene compound and 1 g of toluene were put into a glass bottle to be stirred.
Whether or not any insoluble matter was present in the solution was observed by a visual check.
In order to evaluate a relationship between unit(s) structuring the soluble portion B and the solubility, how the solubility was changed depending on the structure of the solubility portion B was examined.
Compounds used in the examination were AN-1, AN-3, AN-4 and an-1.
For evaluation of the solubility, as in the solubility evaluation 1, 0.01 g of the anthracene compound and 1 g of toluene were put into a glass bottle to be stirred. Then, whether or not any insoluble matter was present in the solution was observed by a visual check.

[2] = Solubility of compound (a) in toluene, evaluated in advance; assay type: physicochemical

| Structure (SMILES) | Presence of insoluble matter [1] | solubility in toluene [1] [wt %] | solubility in toluene [2] [wt %] |
| --- | --- | --- | --- |
| c1ccc(-c2cccc(-c3ccc(-c4ccc(-c5cccc(-c6cccc(-c7cccc(-c8c9ccccc9c(-c9ccc%10ccccc%10c9)c9ccccc89)c7)c6)c5)cc4)cc3)c2)cc1 [AN-3] | no insoluble matter present | ≥ 1 | – |
| c1ccc(-c2ccc(-c3cccc(-c4cccc(-c5cccc(-c6cccc(-c7cccc(-c8c9ccccc9c(-c9ccc%10ccccc%10c9)c9ccccc89)c7)c6)c5)c4)c3)cc2)cc1 [AN-4] | no insoluble matter present | ≥ 1 | – |
| c1ccc(-c2ccccc2-c2ccc3c(-c4ccccc4)c4ccccc4c(-c4ccccc4)c3c2)cc1 [compound (a)] | – | – | 10 |
